Tests used:
Set-up in all cases: species or system AML cell lines (8); Primary HTS, single concentration about 10 uM, Cell Titer Glo viability; log10 luminescence, per cent inhibition relative to cycloheximide control
Conditions in all cases: 72 h, relative to cycloheximide control, log10 luminescence; inhibitor
CHRF288-11 = test system: CHRF288-11
CMS = test system: CMS
MV4-11 = test system: MV4-11
ML-2 = test system: ML-2
U937 = test system: U937
M07e = test system: M07e
MOLM-13 = test system: MOLM-13
CMK = test system: CMK

## CN1CCN(C(=O)c2ccc(NC(=O)Nc3ccc(N(C)c4ccnc(Nc5ccc(CS(C)(=O)=O)cc5)n4)cc3)cc2)CC1 [SJ000573056-1, U17983/92/5]
CHRF288-11
  CHRF288-11 %inh: 0.03637%
CMS
  CMS %inh: -2.808%
MV4-11
  MV4-11 %inh: 82.16%
ML-2
  ML-2 %inh: 10.8%
U937
  U937 %inh: 5.393%
M07e
  M07e %inh: -6.05%
MOLM-13
  MOLM-13 %inh: 94.26%
CMK
  CMK %inh: 6.346%

## Cc1ccc2c(-c3ccnc(Nc4cccc(C(F)(F)F)c4)n3)c(-c3ccccc3)nn2n1 [SJ000573057-1, U18020/146/1]
CHRF288-11
  CHRF288-11 %inh: -3.995%
CMS
  CMS %inh: 10.95%
MV4-11
  MV4-11 %inh: 9.271%
ML-2
  ML-2 %inh: 9.435%
U937
  U937 %inh: 5.106%
M07e
  M07e %inh: 0.344%
MOLM-13
  MOLM-13 %inh: -0.1836%
CMK
  CMK %inh: 8.756%

## COc1cc(C=NNc2ncnc3c2cnn3Cc2ccccc2)ccc1O [SJ000573058-1, T237/25/8]
CHRF288-11
  CHRF288-11 %inh: -7.429%
CMS
  CMS %inh: -1.754%
MV4-11
  MV4-11 %inh: -3.195%
ML-2
  ML-2 %inh: 0.3051%
U937
  U937 %inh: -2.319%
M07e
  M07e %inh: -2.447%
MOLM-13
  MOLM-13 %inh: -1.629%
CMK
  CMK %inh: -3.542%

## COc1ccc(C2=C(N3CCc4ccccc43)C(=O)NC2=O)cc1 [SJ000573061-1, DH97836-162A1]
CHRF288-11
  CHRF288-11 %inh: 16.97%
CMS
  CMS %inh: 1.472%
MV4-11
  MV4-11 %inh: 5.926%
ML-2
  ML-2 %inh: 4.148%
U937
  U937 %inh: 9.443%
M07e
  M07e %inh: 1.612%
MOLM-13
  MOLM-13 %inh: -1.299%
CMK
  CMK %inh: 1.284%

## CCc1cccc(CC)c1/C=C/c1cncc(C(=O)NC)c1 [SJ000573062-1, U12068/83/1]
CHRF288-11
  CHRF288-11 %inh: 36.66%
CMS
  CMS %inh: 0.8952%
MV4-11
  MV4-11 %inh: -0.1109%
ML-2
  ML-2 %inh: 7.466%
U937
  U937 %inh: 29.57%
M07e
  M07e %inh: 15.2%
MOLM-13
  MOLM-13 %inh: 18.25%
CMK
  CMK %inh: 82.75%

## COc1cc(Nc2ncc3c(C)nc(-c4cccc(Oc5ccccc5)c4)n3n2)cc(OC)c1OC [SJ000573063-1, U19891/44/1]
CHRF288-11
  CHRF288-11 %inh: 8.926%
CMS
  CMS %inh: 22.07%
MV4-11
  MV4-11 %inh: 46.32%
ML-2
  ML-2 %inh: 2.68%
U937
  U937 %inh: 10.08%
M07e
  M07e %inh: 11.27%
MOLM-13
  MOLM-13 %inh: 53.84%
CMK
  CMK %inh: 25.77%

## CCN1CCC(CC(=O)Nc2n[nH]c3nnc(-c4cccc(F)c4F)cc23)CC1 [SJ000573064-1, VB101259-076A3]
CHRF288-11
  CHRF288-11 %inh: 30.8%
CMS
  CMS %inh: 104.4%
MV4-11
  MV4-11 %inh: 39.53%
ML-2
  ML-2 %inh: 6.747%
U937
  U937 %inh: 13.36%
M07e
  M07e %inh: 13.75%
MOLM-13
  MOLM-13 %inh: 13.03%
CMK
  CMK %inh: 96.65%

## Cn1cc(C=C2C(=O)Nc3cccnc32)c2ccccc21 [SJ000573065-1, U14362/24/1 | GW-441756 | GW441756]
CHRF288-11
  CHRF288-11 %inh: -4.894%
CMS
  CMS %inh: -3.947%
MV4-11
  MV4-11 %inh: 36.15%
ML-2
  ML-2 %inh: -1.442%
U937
  U937 %inh: -3.233%
M07e
  M07e %inh: -6.294%
MOLM-13
  MOLM-13 %inh: 21.32%
CMK
  CMK %inh: 2.086%

## NCc1ccc(-n2c(-c3nonc3N)nc3cnccc32)cc1 [SJ000573066-1, CP100101-172A1]
CHRF288-11
  CHRF288-11 %inh: 11.55%
CMS
  CMS %inh: 11.21%
MV4-11
  MV4-11 %inh: 62.53%
ML-2
  ML-2 %inh: 11.91%
U937
  U937 %inh: 21.07%
M07e
  M07e %inh: 5.233%
MOLM-13
  MOLM-13 %inh: 27.71%
CMK
  CMK %inh: 18.18%

## O=C(Nc1n[nH]c2cc(-c3ccccc3)ccc12)C1CC1 [SJ000573067-1, VB100064-117A1]
CHRF288-11
  CHRF288-11 %inh: 40.96%
CMS
  CMS %inh: 3.176%
MV4-11
  MV4-11 %inh: 0.9726%
ML-2
  ML-2 %inh: 19.77%
U937
  U937 %inh: 46.5%
M07e
  M07e %inh: 17.84%
MOLM-13
  MOLM-13 %inh: 40.31%
CMK
  CMK %inh: 85.27%

## Cc1cc(O)cc(C)c1/C=C/c1cncc(C(N)=O)c1 [SJ000573068-1, U11805/173/2]
CHRF288-11
  CHRF288-11 %inh: 44.74%
CMS
  CMS %inh: 51.62%
MV4-11
  MV4-11 %inh: 70.37%
ML-2
  ML-2 %inh: 51.45%
U937
  U937 %inh: 80.88%
M07e
  M07e %inh: 72.97%
MOLM-13
  MOLM-13 %inh: 75.99%
CMK
  CMK %inh: 90.65%

## CNC(=O)c1cncc(/C=C/c2ccccc2C)c1 [SJ000573069-1, U12068/59/1]
CHRF288-11
  CHRF288-11 %inh: -2.201%
CMS
  CMS %inh: 0.1448%
MV4-11
  MV4-11 %inh: -0.4269%
ML-2
  ML-2 %inh: -0.01519%
U937
  U937 %inh: -1.047%
M07e
  M07e %inh: 4.224%
MOLM-13
  MOLM-13 %inh: -1.542%
CMK
  CMK %inh: -3.696%

## CNC(=O)c1cncc(/C=C/c2ccccc2Cl)c1 [SJ000573070-1, U12068/61/1]
CHRF288-11
  CHRF288-11 %inh: 33.2%
CMS
  CMS %inh: -0.2342%
MV4-11
  MV4-11 %inh: -1.892%
ML-2
  ML-2 %inh: 26.34%
U937
  U937 %inh: 0.1459%
M07e
  M07e %inh: 31.9%
MOLM-13
  MOLM-13 %inh: 4.101%
CMK
  CMK %inh: 93.63%

## CS(=O)(=O)CCNCc1nc(-c2ccc3ncnc(Nc4ccc(OCc5cccc(C(F)(F)F)c5)cc4)c3c2)cs1 [SJ000573071-1, U14859/60/2]
CHRF288-11
  CHRF288-11 %inh: -1.328%
CMS
  CMS %inh: 1.221%
MV4-11
  MV4-11 %inh: 64.74%
ML-2
  ML-2 %inh: 1.048%
U937
  U937 %inh: 0.6329%
M07e
  M07e %inh: 1.42%
MOLM-13
  MOLM-13 %inh: 70.81%
CMK
  CMK %inh: 3.287%

## c1ccc(Nc2ncc(-c3ccccc3)o2)cc1 [SJ000573072-1, U13103/99/1]
CHRF288-11
  CHRF288-11 %inh: 2.769%
CMS
  CMS %inh: -0.2616%
MV4-11
  MV4-11 %inh: 59.12%
ML-2
  ML-2 %inh: 3.842%
U937
  U937 %inh: 3.569%
M07e
  M07e %inh: -2.471%
MOLM-13
  MOLM-13 %inh: 84.62%
CMK
  CMK %inh: 6.254%

## COc1ccc(-c2nn3ncccc3c2-c2ccnc(Nc3ccc(Cl)c(C(F)(F)F)c3)n2)cc1 [SJ000573073-1, U17838/183/2]
CHRF288-11
  CHRF288-11 %inh: 1.294%
CMS
  CMS %inh: 0.1387%
MV4-11
  MV4-11 %inh: 3.163%
ML-2
  ML-2 %inh: -1.529%
U937
  U937 %inh: 0.7639%
M07e
  M07e %inh: -2.862%
MOLM-13
  MOLM-13 %inh: -0.8658%
CMK
  CMK %inh: 3.073%

## CN1CCC(C(=O)Nc2n[nH]c3nnc(-c4ccccc4)cc23)CC1 [SJ000573074-1, JW48822-132A0]
CHRF288-11
  CHRF288-11 %inh: 65.15%
CMS
  CMS %inh: 83.36%
MV4-11
  MV4-11 %inh: 34.03%
ML-2
  ML-2 %inh: 3.693%
U937
  U937 %inh: 1.724%
M07e
  M07e %inh: 2.861%
MOLM-13
  MOLM-13 %inh: 8.108%
CMK
  CMK %inh: 70.18%

## C#Cc1cccc(Nc2ncnc3ccc(OCCCCNCCS(C)(=O)=O)cc23)c1 [SJ000573075-1, U14819/194/1]
CHRF288-11
  CHRF288-11 %inh: 4.443%
CMS
  CMS %inh: 3.196%
MV4-11
  MV4-11 %inh: -0.7985%
ML-2
  ML-2 %inh: 4.028%
U937
  U937 %inh: -0.213%
M07e
  M07e %inh: -0.9936%
MOLM-13
  MOLM-13 %inh: 9.087%
CMK
  CMK %inh: 9.032%

## O=C1Nc2ccc(C(=O)c3ccco3)cc2C1=Cc1cc(Cl)c(O)c(Cl)c1 [SJ000573076-1, U12068/71/3]
CHRF288-11
  CHRF288-11 %inh: 1.037%
CMS
  CMS %inh: 3.176%
MV4-11
  MV4-11 %inh: 1.256%
ML-2
  ML-2 %inh: 3.323%
U937
  U937 %inh: -1.189%
M07e
  M07e %inh: 2.097%
MOLM-13
  MOLM-13 %inh: 0.2179%
CMK
  CMK %inh: -2.763%

## Cc1ccc2c(-c3ccnc(Nc4ccccc4)n3)c(-c3ccc(F)cc3)nn2n1 [SJ000573077-1, U18020/155/1]
CHRF288-11
  CHRF288-11 %inh: 5.564%
CMS
  CMS %inh: 18.56%
MV4-11
  MV4-11 %inh: -0.5842%
ML-2
  ML-2 %inh: 0.6284%
U937
  U937 %inh: 0.3541%
M07e
  M07e %inh: 7.072%
MOLM-13
  MOLM-13 %inh: -1.366%
CMK
  CMK %inh: 0.5232%

## COc1ccc(-c2nn3ncccc3c2-c2ccnc(Nc3ccc4c(c3)OCCO4)n2)cc1 [SJ000573078-1, U17838/181/2]
CHRF288-11
  CHRF288-11 %inh: 4.025%
CMS
  CMS %inh: 4.836%
MV4-11
  MV4-11 %inh: -0.1391%
ML-2
  ML-2 %inh: 1.307%
U937
  U937 %inh: 3.638%
M07e
  M07e %inh: 5.255%
MOLM-13
  MOLM-13 %inh: 3.964%
CMK
  CMK %inh: -0.1559%

## COc1ccc(-c2nn3ncccc3c2-c2ccnc(Nc3cccc(C(F)(F)F)c3)n2)cc1 [SJ000573079-1, U17838/180/3]
CHRF288-11
  CHRF288-11 %inh: 5.707%
CMS
  CMS %inh: 13.73%
MV4-11
  MV4-11 %inh: 8.211%
ML-2
  ML-2 %inh: -0.6403%
U937
  U937 %inh: 2.119%
M07e
  M07e %inh: 14.72%
MOLM-13
  MOLM-13 %inh: 3.38%
CMK
  CMK %inh: 4.001%

## FC(F)(F)c1cccc(-c2nn3ncccc3c2-c2ccnc(Nc3ccc4c(c3)OCCO4)n2)c1 [SJ000573080-1, U18020/138/1]
CHRF288-11
  CHRF288-11 %inh: 0.7655%
CMS
  CMS %inh: 2.426%
MV4-11
  MV4-11 %inh: 2.308%
ML-2
  ML-2 %inh: 2.472%
U937
  U937 %inh: 3.041%
M07e
  M07e %inh: -0.1766%
MOLM-13
  MOLM-13 %inh: 3.832%
CMK
  CMK %inh: 6.614%
